Measured values reported in the NIST ThermoML archive (doi:10.1016/j.jct.2012.06.030).

Assay: molar heat capacity at constant pressure; xn = mol fraction of the nth substance listed
Details: 101 kPa, Liquid, Small sample (50 mg) DSC

CCCCCC[n+]1ccc2ccccc2c1.N#C[S-] [2-hexylisoquinolinium thiocyanate] + O
molar heat capacity at constant pressure [J/K/mol]
Details	x1 = 0.2887	x1 = 0.4013	x1 = 0.5043	x1 = 0.6059	x1 = 0.6997	x1 = 0.7864	x1 = 0.8824	x1 = 1
288.15 K	189	220	265	298	333	347	390	433
293.15 K	191	222	267	300	335	350	392	436
298.15 K	192	224	269	302	337	352	395	439
303.15 K	193	225	271	304	340	354	397	442
308.15 K	195	226	272	306	341	357	400	445
313.15 K	196	228	274	308	343	359	402	447
318.15 K	197	229	276	309	346	361	404	450
323.15 K	198	230	277	311	348	363	406	453
328.15 K	198	232	278	312	350	365	409	456
333.15 K	199	233	280	314	352	367	411	458
338.15 K	200	234	281	316	353	369	413	461
343.15 K	201	235	283	318	355	371	415	463
